From patent publication US6566355B1 (Hoffmann-La Roche Inc., priority 1991, dated 2003)
Counter-ions that a name gives are not always drawn. Like-named read-outs stand apart in the source and are kept apart here.

Experiments:
β-lactamase = target: T1, β-lactamase (Citrobacter freundii, UniProt P05193); experiment: biochemical
T1 construct: Various β-lactamases can be isolated from penicillin- or cephalosporin-resistant bacterial strains such as; endogenous in cells; host or cells: Citrobacter freundii 1203 (enzyme purified from the crude cell extract, after ampicillin induction when necessary)
T1 sequence (P05193 21-381): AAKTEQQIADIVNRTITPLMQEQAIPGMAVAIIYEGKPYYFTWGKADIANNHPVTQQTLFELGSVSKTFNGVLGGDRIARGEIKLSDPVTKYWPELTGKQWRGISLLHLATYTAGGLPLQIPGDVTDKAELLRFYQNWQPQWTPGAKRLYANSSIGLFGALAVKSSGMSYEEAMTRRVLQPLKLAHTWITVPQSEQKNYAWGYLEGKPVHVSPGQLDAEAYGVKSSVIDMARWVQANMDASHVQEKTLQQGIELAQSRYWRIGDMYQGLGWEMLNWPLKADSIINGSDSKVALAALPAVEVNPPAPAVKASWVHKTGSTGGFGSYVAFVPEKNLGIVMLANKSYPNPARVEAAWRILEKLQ
Procedure: A. Isolation of the β-lactamases
Various β-lactamases can be isolated from penicillin- or cephalosporin-resistant bacterial strains such as Klebsiella pneumoniae NCTC 418, Proteus vulgaris 1028, Bacillus licheniformis 749/C, Escherichia coli SN01 and Citrobacter freundii 1203. For this purpose, the corresponding strains are cultivated in Tryptic Soy Broth (Difco) and harvested by centrifugation in the last logarithmic growth phase (when necessary 50-100 mg/l of ampicillin are added to the medium towards the end of the log-phase in order to induce the β-lactamase). The thus-obtained bacterial mass is treated with 20 mM Tris-HCl buffer (pH 7.0); the cells are broken open with a French press while cooling. The mixture is centrifuged (20,000 r/min.) for 20-30 minutes and a clear crude extract is obtained.
B. Determination of the β-lactamase activity
The determination of the activity of the isolated β-lactamases can be carried out according to the method of O'Callaghan, C. H. et al. [Antimicr. Ag. Chemother., 1, 283-288 (1972)] using the chromogenic cephalosporin nitrocefin (87/312 from Glaxo). The requisite test batch contains per ml of water: 50 mM phosphate buffer (pH 7.0), 0.1 mM nitrocefin and sufficient enzyme (β-lactamase) to achieve a ΔA/min. of about 0.1. The cleavage of the substrate, which is accompanied by a change in colour, is effected at 37° C. and is followed quantitatively at 482 nm using a spectral photometer.
C. Determination of the β-lactamase-inhibiting activity of the compounds of general formula I
The above-described cleavage of the chromogenic substrate by β-lactamases (test B.) can be inhibited by the addition of compounds of general formula I (inhibitors). […] As a measurement for the affinity of the particular tested inhibitor to the β-lactamase, which is a measurement of the strength of the inhibitor, there serves that concentration which inhibits by 50% (IC 50 in nM) the cleavage of the substrate (nitrocefin) effected under the above test conditions (test B) in the absence of an inhibitor. […] The determination of the IC50 was effected by means of a graph.
(Test organism: Citrobacter freundii)

Citrobacter freundii = experiment: MIC in vitro of a 1:4 combination of ceftriaxone with a compound of formula I (test D); assay type: cell-based; settings: 1:4 combination of ceftriaxone with the compound
Procedure: D. Determination of the β-lactamase-inhibiting activity by combination of a compound of general formula I with ceftriaxone
The minimum inhibitory concentration in vitro (MIC in μg/ml) of a 1:4 combination of ceftriaxone with a compound of formula I against Citrobacter freundii is measured and compiled in Table 2 hereinafter.

[1] = IC 50 nM, isolated β-lactamase of Citrobacter freundii, substrate nitrocefin 0.1 mM, 15 minutes pre-incubation with inhibitor, 37° C., pH 7.0

| SMILES | IC50 (β-lactamase; [1]) [nM] | MIC (Citrobacter freundii) [µg/mL] | IC50 (β-lactamase) [nM] |
| --- | --- | --- | --- |
| O=C(Nc1nnc(SCC(=O)N2CC[C@@H]3[C@H]2C(=O)N3S(=O)(=O)[O-])s1)OCc1ccccc1.[Na+] [23(i), (1S,5R)-2-(5-Benzyloxycarbonylamino-1,3,4-thiadiazol-2-ylsulfanyl-acetyl)-7-oxo-2,6-diazabicyclo[3.2.0]heptane-6-sulfonic acid sodium salt] | 70 | 1 |  |
| N[C@H](Cc1ccccc1)C(=O)N1CC[C@@H]2[C@H]1C(=O)N2S(=O)(=O)O [4(f), (1S,5R)-7-Oxo-2-(3-phenyl-D-alanyl)-2,6-diazabicyclo[3.2.0]heptane-6-sulphonic acid] |  | 4 | 280 |
| O=C(COc1ccc(O)nn1)N1CC[C@@H]2[C@H]1C(=O)N2S(=O)(=O)[O-].[Na+] [5(p), (1S,5R)-2-[(6-Hydroxy-pyridazin-3-yloxy)-acetyl]-7-oxo-2,6-diazabicyclo[3.2.0]heptane-6-sulfonic acid sodium salt] | 178 | 1 |  |
| O=C1SCC[C@H]1NC(=O)N1CC[C@@H]2[C@H]1C(=O)N2S(=O)(=O)O [17(u), (1S,5R)-7-Oxo-2-(R)-(2-oxo-3-tetrahydrothienyl-carbamoyl)-2,6-diazabicyclo[3.2.0]heptane-6-sulphonic acid sodium salt] |  | 2 | 62 |
| Cn1ccnc1SCC(=O)N1CC[C@@H]2[C@H]1C(=O)N2S(=O)(=O)[O-].[Na+] [23(d), (1S,5R)-2-(1-Methyl-imidazol-2-ylsulfanylacetyl)-7-oxo-2,6-diazabicyclo[3.2.0]heptane-6-sulfonic acid sodium salt] | 283 | 1 |  |
| N[C@H](C(=O)N1CC[C@@H]2[C@H]1C(=O)N2S(=O)(=O)O)c1ccccc1 [4(d), (1S,5R)-7-Oxo-2-(L-2-phenylglycyl)-2,6-diazabicyclo[3.2.0]heptane-6-sulphonic acid] |  | 2 | 275 |
| O=C1[C@@H]2[C@@H](CCN2S(=O)(=O)Cc2ccccc2)N1S(=O)(=O)[O-].[Na+] [11(d), (1S,5R)-2-(Benzylsulphonyl)-7-oxo-2,6-diazabicyclo [3.2.0]heptane-6-sulphonic acid sodium salt] | 142 | 4 |  |
| O=C(Cn1cnnn1)N1CC[C@@H]2[C@H]1C(=O)N2S(=O)(=O)[O-].[Na+] [8(b), (1S,5R)-7-Oxo-2-(1H-tetrazol-1-ylacetyl)-2,6-diazabicyclo[3.2.0]heptane-6-sulphonic acid sodium salt] | 500 | 1 |  |
| O=C1SCCC1NC(=O)N1CC[C@@H]2[C@H]1C(=O)N2S(=O)(=O)O (mixture of isomers) [17(j), (1S,5R)-7-Oxo-2-(R,S)-(2-oxo-3-tetrahydrothienyl-carbamoyl)-2,6-diazabicyclo[3.2.0]heptane-6-sulphonic acid sodium salt] |  | 2 | 79 |
| O=C(NC1CCS(=O)(=O)C1)N1CC[C@@H]2[C@H]1C(=O)N2S(=O)(=O)[O-].[Na+] (mixture of isomers) [17(x), (1S,5R)-2-[(R) and (S)-1,1-Dioxo-tetrahydrothiophen-3-ylcarbamoyl]-7-oxo-2,6-diaza-bicyclo[3.2.0]heptane-6-sulfonic acid sodium salt] | 199 | 2 |  |
| O=C(/C=C/c1cc[nH]n1)N1CC[C@@H]2[C@H]1C(=O)N2S(=O)(=O)[O-].[Na+] [23(e), (1S,5R)-7-Oxo-2-[(E)-3-pyrazol-3-yl-acryloyl]-2,6-diazabicyclo[3.2.0]heptane-6-sulfonic acid sodium salt] | 138 | 1 |  |
| O=C1C[C@H](NC(=O)N2CC[C@@H]3[C@H]2C(=O)N3S(=O)(=O)[O-])C(=O)N1.[Na+] [17(ag), (1S,5R)-7-Oxo-2-[(S)-2,5-dioxo-pyrrolidin-3-ylcarbamoyl]-2,6-diazabicyclo[3.2.0]heptane-6-sulfonic acid sodium salt] | 337 | 1 |  |
